The numbers were not newly measured in patent publication EP3865125A1, “PHARMACEUTICAL COMPOSITION COMPRISING ELIGLUSTAT” (Kashiv Biosciences, LLC, priority 2020, dated 2021), which cites them from elsewhere.

The conditions of data set [1]: rats, 50-mg/kg dose.
The conditions of data set [2]: dogs, 50-mg/kg dose.
The conditions of data set [3]: mice, 50-mg/kg dose.
Assay in data set [4]: not given
The source holds these as a separate data set.

Like-named read-outs stand apart in the source and are kept apart here.

Regarding `CCCCCCCC(=O)N[C@H](CN1CCCC1)[C@H](O)c1ccc2c(c1)OCCO2` [Eliglustat], the solubility entry is “high solubility”. The oral bioavailability in data set [1] is listed as 39%. Also, the oral bioavailability in data set [2] is listed as 42%. Further, the oral bioavailability in data set [3] is 8%. Also, the absolute bioavailability in data set [4] (CERDELGA capsule, CHMP assessment report) was 4.49% ± 4.13%. Also, the “systemic exposure AUC0-12 at steady state compared to after the first dose (AUC0-inf)” value in data set [4] (multiple oral doses of 84 mg twice daily in EMs) was “up to 2 fold”. Besides, the oral bioavailability result in data set [4] (oral route, significant first pass metabolism) is reported as “less than 5%”.
